For data set [1] the following is noted: other targets with annotated bioactivities at ≤10 µM in previously published dataset; cited from earlier work.
Data set [2] concerns NF-κB activity in HEK293 NF-κB reporter cells. The data set is described as follows: NF-kB activity assay (GFP reporter, ionomycin/PMA). The class given is cell-based. To be noted: for Mean NFκB response: n=3. The procedure: Fig. 6 Application of the NR3 CG set.
After 24 h, cells were incubated with the test compounds solubilized with 0.1% DMSO in the same medium without puromycin. After 4 h incubation, ionomycin (100 ng/mL) and phorbol-12-myristat-13-acetate (PMA, 10 ng/mL) was added, and the cells were imaged for confluence and GFP expression every 90 min. over 24 h using a Tecan SPARK Cyto (Tecan). The number of GFP expressing cells was normalized to confluence in each sample. Each sample was repeated in three biologically independent experiments.

Data set [3] has as its system HEK293T cells. Nature of the data set: Cytotoxicity: growth-rate (change in confluence over 24 h). As to conditions: 1 µM, normalized to 0.1% DMSO control, single replicates (n=1...).
Data set [4] relates to HEK293T cells. The data set is described as follows: Cytotoxicity: metabolic activity (WST-8 / CCK-8 assay). To be noted: 1 µM; HEK293T, 24 h; WST-8; normalized to 0.1% DMSO; single replicates. (In general: Tetrazolium assays rely on reduction of a dye to a coloured formazan, in cell work by metabolically active cells.)
Data set [5] concerns HEK293T cells. The data set is described as follows: Cytotoxicity: necrosis induction (red fluorescent dye for permeable plasma membranes).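 Also: compounds applied in DMEM high glucose with 0.1% FCS and 0.1% DMSO, necrotic HEK293T cells counted by red staining of cells whose plasma membranes had become permeable.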 Format: cell-based. To be noted: 1 µM, 24 h, necrotic cell count normalized to 0.1% DMSO, single replicates.
Data set [6] deals with ATF6 activity in Hela ATF6 reporter cells. The data set is described as follows: Endoplasmic reticulum stress assay (ATF6 Renilla luciferase reporter, tunicamycin). As to conditions: Homo sapiens, HeLa, 1 µM, single replicates n=1 to n=5; read-out: ER stress [rel. ATF6 activity]. Format: cell-based. Here is the method: After 24 h, cells were incubated with the test compounds solubilized with 0.1% DMSO in the same medium without puromycin. After 4 h incubation, tunicamycin (100 ng/mL) was added. After another 18 h incubation, cells were assayed for renilla luminescence using DualGlo reagent (Promega) on a Tecan SPARK Cyto (Tecan). Test samples were normalized to the 0.1% DMSO control. Each sample was repeated in five biologically independent experiments.
A general note: In a reporter assay the amount or activity of a reporter protein is the signal.

Data set [7] deals with HEK293T cells. Nature of the data set: Cytotoxicity: apoptosis induction (caspase-3/7 DEVD fluorogenic DNA dye). As to conditions: 1 µM; HEK293T, 24 h; apoptotic cell count normalized to 0.1% DMSO; single replicates.

Several values for one entry are separate records, joined by “and”; a condition that tells them apart may be missing. Identical values can stand only once.

Regarding `O=c1c(-c2ccc(O)cc2)coc2cc(O)ccc12` [Daidzein], in data set [1], the “Reason for exclusion: number of annotated off-targets” value (from here on “Reason for exclusion: number”) is on record as greater than 5 off-targets.

Regarding `O=c1c(-c2ccc(O)cc2)coc2cc(O)cc(O)c12` [Genistein], the “Reason for exclusion: number” value in data set [1] is on record as greater than 5 off-targets.

In the case of `CC(=O)O[C@]1(C(C)=O)CC[C@H]2[C@@H]3C[C@H](C)C4=CC(=O)CC[C@]4(C)[C@H]3CC[C@@]21C` [Medroxyprogesterone acetate], the “Reason for exclusion: number” value in data set [1] is recorded as greater than 5 off-targets.

As to `CC(C)C(=O)Nc1ccc([N+](=O)[O-])c(C(F)(F)F)c1` [Flutamide], the “Reason for exclusion: number” value in data set [1] was greater than 5 off-targets.

As to `C[C@]12CC[C@@H]3c4ccc(O)cc4CC[C@H]3[C@@H]1CC[C@@H]2O` [17β-Estradiol], the “Reason for exclusion: number” value in data set [1] was greater than 5 off-targets.

Take `C[C@]12C=CC(=O)C=C1CC[C@@H]1[C@@H]2[C@@H](O)C[C@@]2(C)[C@H]1CC[C@]2(O)C(=O)CO` [Prednisolone]: the “Reason for exclusion: number” value in data set [1] is on record as greater than 5 off-targets.

Turning to `C[C@@H]1C[C@H]2[C@@H]3C[C@H](F)C4=CC(=O)C=C[C@]4(C)[C@@]3(F)[C@@H](O)C[C@]2(C)[C@@]1(OC(=O)c1ccco1)C(=O)SCF` [Fluticasone furoate], the “Reason for exclusion: number” value in data set [1] is reported as greater than 5 off-targets.

With `CNC(=O)c1ccc(N2C(=S)N(c3ccc(C#N)c(C(F)(F)F)c3)C(=O)C2(C)C)cc1F` [Enzalutamide], the “Mean NFκB response” value is listed as 4053.16 GFP+-cells/confluence ∙ 1000 in data set [2] (1 µM, 1,5 h); 4748.63 GFP+-cells/confluence ∙ 1000 in data set [2] (1 µM, 4,5 h); 9147.14 GFP+-cells/confluence ∙ 1000 in data set [2] (1 µM, 7,5 h); 19308.05 GFP+-cells/confluence ∙ 1000 in data set [2] (1 µM, 10,5 h); 27440.00 GFP+-cells/confluence ∙ 1000 in data set [2] (1 µM, 13,5 h); 33976.67 GFP+-cells/confluence ∙ 1000 in data set [2] (1 µM, 16,6 h). Besides, the “Mean NFκB response” value in data set [2] (1 µM, 19,5 h) is 37833.33 GFP+-cells/confluence ∙ 1000; in data set [2] (1 µM, 22,5 h), 41216.67 GFP+-cells/confluence ∙ 1000; in data set [2] (1 µM, 3 h), 4315.98 GFP+-cells/confluence ∙ 1000; in data set [2] (1 µM, 6 h), 6007.28 GFP+-cells/confluence ∙ 1000; in data set [2] (1 µM, 9 h), 14317.85 GFP+-cells/confluence ∙ 1000; in data set [2] (1 µM, 12 h), 23650.00 GFP+-cells/confluence ∙ 1000. The “Mean NFκB response” value in data set [2] (1 µM, 15 h) is on record as 31096.67 GFP+-cells/confluence ∙ 1000; in data set [2] (1 µM, 18 h), 36023.33 GFP+-cells/confluence ∙ 1000; in data set [2] (1 µM, 21 h), 39446.67 GFP+-cells/confluence ∙ 1000; in data set [2] (1 µM, 24 h) it was 42106.67 GFP+-cells/confluence ∙ 1000. Also, the “NF-κB activity (inflammatory response to ionomycin/PMA)” value in data set [2] (HEK293 NF-κB reporter cells, compounds at recommended concentrations, imaged over 24 h, n = 3) was “tended to enhance NF-κB activity”. Besides, the “Growth rate [GR]” value in data set [3] was 0.61 and 1.23 and 0.75 and 1.17 and 0.84 and 0.95 and 1.00 and 2.30 and 3.82 and 0.45. Besides, the “Metabolic activity [MA]” value in data set [4] was 1.02 and 1.04 and 1.01 (2×) and 0.98 and 1.13. For the same molecule, the “Necrosis induction [NI]” value in data set [5] is 0.88 and 0.97 and 0.94 and 0.81. For the same molecule, the activity at 1 µM in data set [6] is 99% and 117%. Further, the “Apoptosis induction [AI]” value in data set [7] is 0.86 and 1.10 and 1.13 and 0.75 and 1.01 and 0.84.

As to `CC(=O)S[C@@H]1CC2=CC(=O)CC[C@]2(C)[C@H]2CC[C@@]3(C)[C@@H](CC[C@@]34CCC(=O)O4)[C@H]12` [Spironolactone], the “Reason for exclusion: number” value in data set [1] is listed as greater than 5 off-targets.

Regarding `C[C@]12CC[C@@H]3c4ccc(O)cc4CC[C@H]3[C@@H]1C[C@@H](O)[C@@H]2O` [Estriol], the “Reason for exclusion: number” value in data set [1] was greater than 5 off-targets.

Regarding `C[C@]12CC[C@H]3[C@@H](CCC4=CC(=O)CC[C@@]43C)[C@@H]1CC[C@@H]2O` [Testosterone], the “Reason for exclusion: number” value in data set [1] is greater than 5 off-targets.

With `C[C@]12C=CC(=O)C=C1CC[C@H]1[C@@H]3C[C@@H](O)[C@](O)(C(=O)CO)[C@@]3(C)C[C@H](O)[C@@]12F` [Triamcinolone], the “Reason for exclusion: number” value in data set [1] is on record as greater than 5 off-targets.

For `CC/C(=C(\c1ccccc1)c1ccc(OCCN(C)C)cc1)c1ccccc1` [Tamoxifen], the “Reason for exclusion: number” value in data set [1] was greater than 5 off-targets.

Regarding `C/C=C1/C(=O)C[C@H]2[C@@H]3CCC4=CC(=O)CC[C@]4(C)[C@H]3CC[C@]12C` [E-Guggulsterone], the “Reason for exclusion: number” value in data set [1] is recorded as greater than 5 off-targets.

Take `C[C@]12CC[C@H](O)CC1=CC[C@@H]1[C@@H]2CC[C@]2(C)C(n3cnc4ccccc43)=CC[C@@H]12` [Galeterone]: the “Reason for exclusion: number” value in data set [1] is recorded as greater than 5 off-targets.

For `COc1cc([C@@H]2c3cc4c(cc3[C@H](O)[C@H]3COC(=O)[C@H]23)OCO4)cc(OC)c1OC` [Podophyllotoxin], the “Reason for exclusion: number” value in data set [1] is greater than 5 off-targets.

For `C[C@]12CCC(=O)C[C@@H]1CC[C@@H]1[C@@H]2CC[C@]2(C)[C@@H](O)CC[C@@H]12` [Dihydrotestosterone], in data set [1], the “Reason for exclusion: number” value is greater than 5 off-targets.

For the molecule `CC(=O)[C@H]1CC[C@H]2[C@@H]3CCC4=CC(=O)CC[C@]4(C)[C@H]3CC[C@]12C` [Progesterone], in data set [1], the “Reason for exclusion: number” value is greater than 5 off-targets.

Turning to `CC(=O)[C@@]1(O)CC[C@H]2[C@@H]3CCC4=CC(=O)CC[C@]4(C)[C@H]3CC[C@@]21C` [Hydroxyprogesterone], the “Reason for exclusion: number” value in data set [1] is reported as greater than 5 off-targets.

For the molecule `CC(O)(CS(=O)(=O)c1ccc(F)cc1)C(=O)Nc1ccc(C#N)c(C(F)(F)F)c1` (centres unmarked) [Bicalutamide], the “Reason for exclusion: number” value in data set [1] is given as greater than 5 off-targets.

As to `COc1ccc2c(c1)c(CC(=O)O)c(C)n2C(=O)c1ccc(Cl)cc1` [Indomethacin], the “Reason for exclusion: number” value in data set [1] was greater than 5 off-targets.

As to `O=c1oc2cc(O)ccc2c2oc3cc(O)ccc3c12` [Coumestrol], the “Reason for exclusion: number” value in data set [1] is on record as greater than 5 off-targets.

For the molecule `CCN(CC)CCOc1ccc(/C(=C(/Cl)c2ccccc2)c2ccccc2)cc1.Cl` [Enclomiphene hydrochloride], the “Reason for exclusion: number” value in data set [1] is greater than 5 off-targets.

Consider `C[C@]12CC[C@@H]3c4ccc(OC(=O)c5ccccc5)cc4CC[C@H]3[C@@H]1CC[C@@H]2O` [Estradiol benzoate], for which the “Reason for exclusion: number” value in data set [1] is recorded as greater than 5 off-targets.

For `CCC(=C(c1ccc(O)cc1)c1ccc(OCCN(C)C)cc1)c1ccccc1` [(E,Z)-Hydroxytamoxifen], the “Reason for exclusion: number” value in data set [1] is recorded as greater than 5 off-targets.

Consider `Oc1c(Cl)cc(Cl)c(Cl)c1Cc1c(O)c(Cl)cc(Cl)c1Cl` [Hexachlorophene], for which, in data set [1], the “Reason for exclusion: number” value was greater than 5 off-targets.

The values above are taken from article PMC11790914, “Chemogenomics for steroid hormone receptors (NR3)” (Communications Chemistry, 2025).
